Measured values reported in ChEMBL document CHEMBL5303573, “Mapping human microbiome drug metabolism by gut bacteria and their genes” (Nature, 2019).

How the values were obtained:
[1] = target: T1, Steroid 5-alpha reductase C-terminal domain-containing protein (Phocaeicola dorei, UniProt B6W0N3); test: The drug is tested on Bacteroides dorei strain: DSM17855 for biotransformation. The drug concentrations were measured before and after a 12-h incubation by liquid-chromatography-coupled mass spectrometry (LC–MS); format: ADME; parameters: dose 2 uM; details: 2 µM
T1 sequence (B6W0N3 whole entry): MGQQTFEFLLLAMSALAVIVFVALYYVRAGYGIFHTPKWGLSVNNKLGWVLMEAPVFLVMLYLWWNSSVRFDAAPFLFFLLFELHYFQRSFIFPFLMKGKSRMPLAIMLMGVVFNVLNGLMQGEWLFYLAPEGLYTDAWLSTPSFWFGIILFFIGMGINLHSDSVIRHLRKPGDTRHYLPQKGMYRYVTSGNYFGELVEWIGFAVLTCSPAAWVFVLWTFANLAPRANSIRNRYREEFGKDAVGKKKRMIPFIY

[2] = target: T2, Acetyl esterase (Acetylxylosidase) (Bacteroides thetaiotaomicron, UniProt Q8ABF8); test: (§1) The drug is tested on Bacteroides thetaiotaomicron strain: VPI-5482 for biotransformation. The drug concentrations were measured before and after a 12-h incubation by liquid-chromatography-coupled mass spectrometry (LC–MS); format: ADME; parameters: dose 2 uM; details: 2 µM
T2 sequence (Q8ABF8 whole entry): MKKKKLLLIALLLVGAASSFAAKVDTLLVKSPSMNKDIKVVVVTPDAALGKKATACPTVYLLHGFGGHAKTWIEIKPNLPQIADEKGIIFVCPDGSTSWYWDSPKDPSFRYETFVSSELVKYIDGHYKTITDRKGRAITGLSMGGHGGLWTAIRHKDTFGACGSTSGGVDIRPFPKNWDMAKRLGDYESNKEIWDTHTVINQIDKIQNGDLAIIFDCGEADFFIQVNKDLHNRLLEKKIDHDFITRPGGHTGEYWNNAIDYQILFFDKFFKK

[3] = target: T3, Nitroreductase-like protein (Bacteroides thetaiotaomicron, UniProt Q8AB93); test: as §1; format: ADME; parameters: dose 2 uM; details: 2 µM
T3 sequence (Q8AB93 whole entry): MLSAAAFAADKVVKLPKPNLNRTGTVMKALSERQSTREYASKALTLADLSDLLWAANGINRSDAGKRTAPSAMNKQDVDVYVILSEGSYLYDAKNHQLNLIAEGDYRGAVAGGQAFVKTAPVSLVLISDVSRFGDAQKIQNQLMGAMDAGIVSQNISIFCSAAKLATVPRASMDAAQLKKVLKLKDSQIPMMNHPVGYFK

Acylhydrolase = target: T4, Acylhydrolase (Bacteroides thetaiotaomicron, UniProt Q8AA96); test: as §1; format: ADME; parameters: dose 2 uM; details: 2 µM
T4 sequence (Q8AA96 whole entry): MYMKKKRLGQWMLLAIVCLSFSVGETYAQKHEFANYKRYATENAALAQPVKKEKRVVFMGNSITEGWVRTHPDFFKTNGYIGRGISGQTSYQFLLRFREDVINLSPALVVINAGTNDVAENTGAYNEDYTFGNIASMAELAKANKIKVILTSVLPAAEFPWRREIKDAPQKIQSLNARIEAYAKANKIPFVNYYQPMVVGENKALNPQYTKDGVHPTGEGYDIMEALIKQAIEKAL

[4] = target: T5, 3-oxo-5-alpha-steroid 4-dehydrogenase (Bacteroides thetaiotaomicron, UniProt Q8A618); test: as §1; format: ADME; parameters: dose 2 uM; details: 2 µM
T5 sequence (Q8A618 whole entry): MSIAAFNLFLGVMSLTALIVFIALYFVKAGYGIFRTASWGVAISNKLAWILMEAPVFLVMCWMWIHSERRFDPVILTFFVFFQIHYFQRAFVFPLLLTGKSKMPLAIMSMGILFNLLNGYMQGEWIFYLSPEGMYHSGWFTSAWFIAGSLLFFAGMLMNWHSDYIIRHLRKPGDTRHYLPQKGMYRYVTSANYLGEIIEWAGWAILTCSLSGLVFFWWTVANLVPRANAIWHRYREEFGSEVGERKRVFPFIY

General stress protein = General stress protein (Bacteroides thetaiotaomicron, UniProt Q8A7U5); test: as §1; format: ADME; parameters: dose 2 uM; details: 2 µM
Sequence of General stress protein (Q8A7U5 1-138, change not shown): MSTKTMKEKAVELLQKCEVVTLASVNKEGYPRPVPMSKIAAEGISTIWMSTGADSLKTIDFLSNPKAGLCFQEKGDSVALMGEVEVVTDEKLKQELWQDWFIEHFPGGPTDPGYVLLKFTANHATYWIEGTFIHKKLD

[5] = target: T6, Sialic acid-specific acetylesterase (Bacteroides thetaiotaomicron, UniProt Q8A331); test: as §1; format: ADME; parameters: dose 2 uM; details: 2 µM
T6 sequence (Q8A331 whole entry): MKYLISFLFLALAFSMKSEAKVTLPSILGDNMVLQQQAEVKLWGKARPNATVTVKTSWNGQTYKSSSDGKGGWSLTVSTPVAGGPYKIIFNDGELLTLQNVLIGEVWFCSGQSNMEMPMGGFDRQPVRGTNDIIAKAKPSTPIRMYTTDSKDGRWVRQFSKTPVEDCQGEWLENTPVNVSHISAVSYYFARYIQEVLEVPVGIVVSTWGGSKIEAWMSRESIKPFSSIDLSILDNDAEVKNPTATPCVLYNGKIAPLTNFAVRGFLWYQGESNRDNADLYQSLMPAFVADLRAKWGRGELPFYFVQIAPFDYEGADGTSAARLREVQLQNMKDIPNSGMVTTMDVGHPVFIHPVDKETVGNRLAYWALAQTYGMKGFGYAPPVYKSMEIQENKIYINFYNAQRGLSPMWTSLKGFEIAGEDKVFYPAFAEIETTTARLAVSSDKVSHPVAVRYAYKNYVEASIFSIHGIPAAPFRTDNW

Nitroreductase = target: T7, Nitroreductase (Bacteroides thetaiotaomicron, UniProt Q8A911); test: as §1; format: ADME; parameters: dose 2 uM; details: 2 µM
T7 sequence (Q8A911 whole entry): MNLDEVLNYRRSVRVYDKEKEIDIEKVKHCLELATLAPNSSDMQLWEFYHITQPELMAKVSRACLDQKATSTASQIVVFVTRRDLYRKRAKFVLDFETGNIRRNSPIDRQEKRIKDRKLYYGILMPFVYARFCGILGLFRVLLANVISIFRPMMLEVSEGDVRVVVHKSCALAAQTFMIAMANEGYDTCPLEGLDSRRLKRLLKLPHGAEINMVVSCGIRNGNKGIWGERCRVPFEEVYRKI

[6] = target: T8, NADH dehydrogenase/NAD(P)H nitroreductase (Bacteroides thetaiotaomicron, UniProt Q8A8L9); test: as §1; format: ADME; parameters: dose 2 uM; details: 2 µM
T8 sequence (Q8A8L9 whole entry): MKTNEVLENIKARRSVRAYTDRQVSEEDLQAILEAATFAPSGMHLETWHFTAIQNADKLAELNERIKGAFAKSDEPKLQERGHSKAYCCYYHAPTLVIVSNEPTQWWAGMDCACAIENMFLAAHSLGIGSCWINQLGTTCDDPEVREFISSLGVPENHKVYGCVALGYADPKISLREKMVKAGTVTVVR

[7] = The drug is tested on Clostridium spiroforme strain: DSM1552 for biotransformation. The drug concentrations were measured before and after a 12-h incubation by liquid-chromatography-coupled mass spectrometry (LC–MS); details: thomasclavelia spiroformis, 2 µM

Bacterial Biotransformation [1] | Bacterial Biotransformation [2] | Bacterial Biotransformation [3] | Bacterial Biotransformation (Acylhydrolase) | Bacterial Biotransformation [4] | Bacterial Biotransformation (General stress protein) | Bacterial Biotransformation [5] | Bacterial Biotransformation (Nitroreductase) | Bacterial Biotransformation [6] | SMILES | Bacterial Biotransformation [7]
Compound NOT metabolized | Compound metabolized | Compound NOT metabolized | Compound metabolized | Compound NOT metabolized | Compound NOT metabolized | Compound metabolized | Compound NOT metabolized | Compound NOT metabolized | CC(=O)SCC(Cc1ccccc1)C(=O)NCC(=O)OCc1ccccc1 (configuration not stated) [RACECADOTRIL] | 
Compound NOT metabolized | Compound metabolized | Compound NOT metabolized | Compound metabolized | Compound NOT metabolized | Compound NOT metabolized | Compound metabolized | Compound NOT metabolized | Compound NOT metabolized | CC(=O)Nc1ccc(OC(C)=O)cc1 [DIACETAMATE] | 
Compound NOT metabolized | Compound metabolized | Compound NOT metabolized | Compound metabolized | Compound NOT metabolized | Compound NOT metabolized | Compound metabolized | Compound NOT metabolized | Compound NOT metabolized | CC(=O)Oc1ccc(C(c2ccc(OC(C)=O)cc2)c2ccccn2)cc1 [BISACODYL] | 

SMILES | Bacterial Biotransformation [1] | Bacterial Biotransformation [2] | Bacterial Biotransformation [3] | Bacterial Biotransformation (Acylhydrolase) | Bacterial Biotransformation [4] | Bacterial Biotransformation (General stress protein) | Bacterial Biotransformation [5] | Bacterial Biotransformation (Nitroreductase) | Bacterial Biotransformation [6] | Bacterial Biotransformation [7]
C[C@@H]1CC[C@H]2[C@@H](C)C(=O)O[C@@H]3O[C@@]4(C)CC[C@@H]1[C@]32OO4 [ARTEMISININ] | Compound NOT metabolized | Compound NOT metabolized | Compound NOT metabolized | Compound NOT metabolized | Compound NOT metabolized | Compound metabolized | Compound NOT metabolized | Compound NOT metabolized | Compound NOT metabolized | Compound metabolized
